The test relates to A/PR/8/34 with NA-H274Y. It counts as cell-based, Influenza A virus (H1N1).

Consider one molecule from PMC9785492 (Viruses, 2022).

What is called IC50 is the point on the concentration scale where inhibition reaches its midpoint.

Molecule `COC(=O)C1=C(C)NC(C)=C(C(=O)OCC(C)C)C1c1ccccc1[N+](=O)[O-]` (stereo not shown) [Nisoldipine] came in with an IC50 of 5.94 ± 0.55 µM.
